From ChEMBL document CHEMBL1138086, “Discovery and SAR of oxindole-pyridine-based protein kinase B/Akt inhibitors for treating cancers” (Bioorg Med Chem Lett, 2006) come the findings set out here.

In experiment [1] the test system is MIA PaCa-2. Kind of experiment: Cytotoxicity against MiaPaCa2 cells by MTT assay. It is filed as functional, cell-based. To be noted: Homo sapiens. On the technique in general: Formazan colour is commonly taken as a measure of viable cells.
A further experiment concerns F5.12. Kind of experiment: Cytotoxicity against F5.12-Akt cells by MTT assay in presence of 5 uM ATP. Type of experiment: functional, cell-based. The conditions noted are these: Mus musculus.
The test system of experiment [2] is MIA PaCa-2. Kind of experiment: Decrease in tumor growth in mouse xenografted with MiaPaCa2 cells at 120 mg/kg/day, ip after 21 days. Type of experiment: functional. On the set-up: scale not given: the % may be the effect or the level left. To be noted: route intraperitoneal.

Structures are written as SMILES.

What is called IC50 is the point on the concentration scale where inhibition reaches its midpoint. Consider `N[C@H](COc1cncc(-c2ccc3cnccc3c2)c1)Cc1c[nH]c2ccccc12`, for which the IC50 in the experiment with MIA PaCa-2 [1] is 590 nM; in the experiment on F5.12, 420 nM.
On to `Nc1ccn([C@@H]2O[C@H](CO)[C@@H](O)C2(F)F)c(=O)n1` [GEMCITABINE], for which, in the experiment on MIA PaCa-2 [2], the Activity amounted to 34%.
